Assay results published in publication PMC6225228, “Design, Synthesis and Evaluation of N-pyrazinylbenzamides as Potential Antimycobacterial Agents” (Molecules : A Journal of Synthetic Chemistry and Natural …, 2018).
Converted amounts (≈) assume the structure as drawn. Read-outs that look alike come from different tables or passages of the source.

Key:
[1] = test system: Mycobacterium smegmatis CCM 4622 (ATCC 607); assay: Antimycobacterial microdilution, M. smegmatis; type: cell-based; details: Mycolicibacterium smegmatis, read-out: M. smeg. ATCC 607 MIC
[2] = test system: Candida krusei E28; assay: Antifungal microdilution broth, CK; type: cell-based; details: Pichia kudriavzevii, read-out: MIC CK
[3] = test system: Mycobacterium tuberculosis H37Rv CNCTC My 331/88 (ATCC 27294); assay: Antimycobacterial microdilution MABA, M. tuberculosis; type: cell-based; details: for Mtb H37Rv ATCC 27294 MIC: Middlebrook 7H9 with OADC growth supplement, pH = 6.6, MABA; for MIC: Mycobacterium tuberculosis, read-out: Mtb H37Rv ATCC 27294 MIC, Middlebrook 7H9 with OADC growth supplement, pH = 6.6, MABA
[4] = test system: M. kansasii CNCTC My 235/80 (ATCC 12478); assay: Antimycobacterial microdilution MABA, M. kansasii; type: cell-based, Mycobacterium kansasii; details: for MIC: Mycobacterium kansasii, ATCC12478, pH 6.6, read-out: M. kans. ATCC 12478 MIC, Middlebrook 7H9 with OADC, pH 6.6, MABA
[5] = test system: Pseudomonas aeruginosa CCM 1961; assay: Antibacterial microdilution broth, PA; type: cell-based; details: Pseudomonas aeruginosa, read-out: MIC PA
[6] = test system: Trichosporon asahii 1188; assay: Antifungal microdilution broth, TA; type: cell-based; details: read-out: MIC TA
[7] = test system: Escherichia coli CCM 4517; assay: Antibacterial microdilution broth, EC; type: cell-based; details: Escherichia coli, read-out: MIC EC
[8] = test system: Lichtheimia corymbifera 272; assay: Antifungal microdilution broth, LC; type: cell-based; details: read-out: MIC LC
[9] = test system: Staphylococcus aureus H 5996/08 methicillin resistant; assay: microbe, parasite or virus in culture; type: cell-based; details: for MIC: Staphylococcus aureus, MRSA, read-out: MIC MRSA
[10] = test system: Candida tropicalis 156; assay: Antifungal microdilution broth, CT; type: cell-based; details: read-out: MIC CT
[11] = test system: Candida glabrata 20/I; assay: Antifungal microdilution broth, CG; type: cell-based; details: Nakaseomyces glabratus, 20/I, read-out: MIC CG
[12] = test system: Staphylococcus epidermidis H 6966/08; assay: Antibacterial microdilution broth, SE; type: cell-based; details: read-out: MIC SE
[13] = test system: Trichophyton interdigitale 445; assay: Antifungal microdilution broth, TI; type: cell-based; details: read-out: MIC TI
[14] = test system: Candida albicans ATCC 44859; assay: Antifungal microdilution broth, CA; type: cell-based; details: Candida albicans, read-out: MIC CA
[15] = test system: M. avium ssp. avium CNCTC My 80/72 (ATCC 15769); assay: Antimycobacterial microdilution MABA, M. avium; type: cell-based, Mycobacterium avium; details: for MIC: Mycobacterium avium, ATCC15769, pH 6.6, read-out: M. avium ATCC 15769 MIC
[16] = test system: Enterococcus sp. J 14365/08; assay: Antibacterial microdilution broth, EF; type: cell-based; details: Enterococcus, read-out: MIC EF
[17] = test system: Aspergillus fumigatus 231; assay: Antifungal microdilution broth, AF; type: cell-based; details: read-out: MIC AF
[18] = test system: Staphylococcus aureus CCM 4516/08; assay: Antibacterial microdilution broth, SA; type: cell-based
[19] = Trichosporon asahii, 1188, 24 h
[20] = Trichosporon asahii, 1188, 48 h
[21] = Lichtheimia corymbifera, 272, 24 h
[22] = Lichtheimia corymbifera, 272, 48 h
[23] = Staphylococcus epidermidis, H6966/08, 24 h
[24] = Staphylococcus epidermidis, H6966/08, 48 h
[25] = Trichophyton interdigitale, 445, 72 h
[26] = Trichophyton interdigitale, 445, 120 h
[27] = Aspergillus fumigatus, 231, 24 h
[28] = Aspergillus fumigatus, 231, 48 h
[29] = Staphylococcus aureus, CCM4516, 24 h, read-out: MIC SA, 24 h
[30] = Staphylococcus aureus, CCM4516, 48 h, read-out: MIC SA, 48 h
[31] = Middlebrook 7H9 with OADC, pH 6.6, MABA

COc1ccccc1C(=O)Nc1cncc(Cl)n1 [Compound 3e]
MIC [1]: ≥ 500 µg/mL
MIC ([2]; E28, 24 h): > 500 µM
MIC ([2]; E28, 48 h): > 500 µM
Mtb H37Rv ATCC 27294 MIC [3]: >100 µg/mL
MIC [3]: > 100 µg/mL
MIC [4]: > 100 µg/mL
MIC ([5]; CCM1961, 72 h): > 500 µM
MIC ([5]; CCM1961, 120 h): > 500 µM
MIC [6, 19]: > 500 µM
MIC [6, 20]: > 500 µM
MIC ([7]; CCM4517, 24 h): > 500 µM
MIC ([7]; CCM4517, 48 h): > 500 µM
MIC [8, 21]: > 500 µM
MIC [8, 22]: > 500 µM
MIC ([9]; 24 h): > 500 µM
MIC ([9]; 48 h): > 500 µM
melting point: 149.1 to 150.7 °C
MIC ([10]; Candida tropicalis, 156, 24 h): > 500 µM
MIC ([10]; Candida tropicalis, 156, 48 h): > 500 µM
MIC ([11]; 24 h): > 500 µM
MIC ([11]; 48 h): > 500 µM
MIC [12, 23]: > 500 µM
MIC [12, 24]: > 500 µM
MIC [13, 25]: > 500 µM
MIC [13, 26]: > 500 µM
MIC ([14]; ATCC44859, 24 h): > 500 µM
MIC ([14]; ATCC44859, 48 h): > 500 µM
MIC [15]: > 100 µg/mL
MIC ([16]; SP.J14365/08, 24 h): > 500 µM
MIC ([16]; SP.J14365/08, 48 h): > 500 µM
MIC [17, 27]: > 500 µM
MIC [17, 28]: > 500 µM
MIC [18, 29]: > 500 µM
MIC [18, 30]: > 500 µM

CC(=O)Oc1cccc(C(=O)Nc2cnc(Cl)cn2)c1 [Compound 2c-Ac]
MIC [1]: 250 µg/mL (≈ 857 µM)
MIC ([2]; E28, 24 h): > 125 µM
MIC ([2]; E28, 48 h): > 125 µM
Mtb H37Rv ATCC 27294 MIC [3]: >100 µg/mL
MIC [3]: > 100 µg/mL
M. kans. ATCC 12478 MIC [4, 31]: >100 µg/mL
MIC [4]: > 100 µg/mL
MIC ([5]; CCM1961, 72 h): > 125 µM
MIC ([5]; CCM1961, 120 h): > 125 µM
MIC [6, 19]: > 125 µM
MIC [6, 20]: > 125 µM
MIC ([7]; CCM4517, 24 h): > 125 µM
MIC ([7]; CCM4517, 48 h): > 125 µM
MIC [8, 21]: > 125 µM
MIC [8, 22]: > 125 µM
MIC MRSA ([9]; 24 h): >125 µM
MIC MRSA ([9]; 48 h): >125 µM
MIC ([9]; 24 h): > 125 µM
MIC ([9]; 48 h): > 125 µM
melting point: 184.1 to 184.6 °C
MIC ([10]; Candida tropicalis, 156, 24 h): > 125 µM
MIC ([10]; Candida tropicalis, 156, 48 h): > 125 µM
MIC ([11]; 24 h): > 125 µM
MIC ([11]; 48 h): > 125 µM
MIC ([12]; 24 h): >125 µM
MIC ([12]; 48 h): >125 µM
MIC [12, 23]: > 125 µM
MIC [12, 24]: > 125 µM
MIC [13, 25]: > 125 µM
MIC [13, 26]: > 125 µM
MIC ([14]; ATCC44859, 24 h): > 125 µM
MIC ([14]; ATCC44859, 48 h): > 125 µM
M. avium ATCC 15769 MIC [15, 31]: >100 µg/mL
MIC [15]: > 100 µg/mL
MIC ([16]; SP.J14365/08, 24 h): > 125 µM
MIC ([16]; SP.J14365/08, 48 h): > 125 µM
MIC [17, 27]: > 125 µM
MIC [17, 28]: > 125 µM
MIC ([18]; 24 h, read-out: MIC SA): >125 µM
MIC ([18]; 48 h, read-out: MIC SA): >125 µM
MIC [18, 29]: > 125 µM
MIC [18, 30]: > 125 µM
